Data reported in publication PMC5512571 (Cancer cell, 2017).

Experiments:
Assay in all cases: in vitro kinase panel profiling
Type in all cases: biochemical
[1] = biological target: LRRK2 (Homo sapiens, UniProt Q5S007)
[2] = biological target: T1, JAK3 (Homo sapiens, UniProt P52333)
T1 sequence (P52333 1-1124): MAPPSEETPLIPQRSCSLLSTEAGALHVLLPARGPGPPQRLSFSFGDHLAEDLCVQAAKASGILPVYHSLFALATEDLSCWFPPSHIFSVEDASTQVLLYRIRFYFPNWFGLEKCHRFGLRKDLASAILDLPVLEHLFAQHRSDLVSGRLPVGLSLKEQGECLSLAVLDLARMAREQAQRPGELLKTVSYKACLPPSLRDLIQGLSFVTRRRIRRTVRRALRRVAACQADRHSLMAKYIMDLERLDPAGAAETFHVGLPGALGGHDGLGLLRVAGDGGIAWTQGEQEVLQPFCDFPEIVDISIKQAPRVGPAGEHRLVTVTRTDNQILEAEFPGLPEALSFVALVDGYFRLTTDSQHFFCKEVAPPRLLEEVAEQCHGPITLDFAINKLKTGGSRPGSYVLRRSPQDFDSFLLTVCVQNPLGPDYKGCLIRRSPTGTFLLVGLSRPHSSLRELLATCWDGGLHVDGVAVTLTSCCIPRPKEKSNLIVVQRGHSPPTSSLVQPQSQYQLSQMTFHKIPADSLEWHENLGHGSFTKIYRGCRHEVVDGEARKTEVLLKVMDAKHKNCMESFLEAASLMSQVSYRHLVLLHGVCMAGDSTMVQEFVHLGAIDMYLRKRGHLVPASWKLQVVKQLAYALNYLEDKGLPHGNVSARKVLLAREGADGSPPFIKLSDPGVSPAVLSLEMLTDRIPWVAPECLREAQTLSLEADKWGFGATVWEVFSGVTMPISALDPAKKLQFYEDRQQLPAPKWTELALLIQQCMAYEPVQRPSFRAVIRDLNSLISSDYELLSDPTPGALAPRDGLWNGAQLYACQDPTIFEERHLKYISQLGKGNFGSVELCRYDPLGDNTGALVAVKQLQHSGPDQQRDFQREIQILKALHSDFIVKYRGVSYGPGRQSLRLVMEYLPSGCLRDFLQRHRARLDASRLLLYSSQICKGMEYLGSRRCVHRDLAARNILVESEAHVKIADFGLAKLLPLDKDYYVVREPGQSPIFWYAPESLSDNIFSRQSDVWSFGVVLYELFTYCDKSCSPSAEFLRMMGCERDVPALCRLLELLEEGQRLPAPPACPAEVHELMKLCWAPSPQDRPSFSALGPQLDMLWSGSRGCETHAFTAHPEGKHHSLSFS

[3] = biological target: TYK2 (Homo sapiens, UniProt P29597)
[4] = biological target: FLT3 (Homo sapiens, UniProt P36888)
[5] = biological target: T2, TNK1 (Homo sapiens, UniProt Q13470)
T2 sequence (Q13470 1-666): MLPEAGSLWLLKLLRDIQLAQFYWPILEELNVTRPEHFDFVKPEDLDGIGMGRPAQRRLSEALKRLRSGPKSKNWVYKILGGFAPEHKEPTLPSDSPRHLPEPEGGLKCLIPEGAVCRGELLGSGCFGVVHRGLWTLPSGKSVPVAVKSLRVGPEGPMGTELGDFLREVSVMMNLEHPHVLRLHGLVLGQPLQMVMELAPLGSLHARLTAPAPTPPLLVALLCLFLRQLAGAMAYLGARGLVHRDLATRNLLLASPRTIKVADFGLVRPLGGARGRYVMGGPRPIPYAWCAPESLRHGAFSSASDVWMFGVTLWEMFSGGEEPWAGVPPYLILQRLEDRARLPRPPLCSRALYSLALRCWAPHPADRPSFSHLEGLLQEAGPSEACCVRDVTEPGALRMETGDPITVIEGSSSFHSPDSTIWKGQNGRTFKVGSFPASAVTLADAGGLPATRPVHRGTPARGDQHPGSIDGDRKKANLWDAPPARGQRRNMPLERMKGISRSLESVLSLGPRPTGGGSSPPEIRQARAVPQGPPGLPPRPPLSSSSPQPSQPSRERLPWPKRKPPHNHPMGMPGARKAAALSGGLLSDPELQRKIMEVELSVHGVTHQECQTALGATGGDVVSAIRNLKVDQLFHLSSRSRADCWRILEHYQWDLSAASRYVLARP

[6] = biological target: T3, NUAK2 (Homo sapiens, UniProt Q9H093)
T3 sequence (Q9H093 1-628): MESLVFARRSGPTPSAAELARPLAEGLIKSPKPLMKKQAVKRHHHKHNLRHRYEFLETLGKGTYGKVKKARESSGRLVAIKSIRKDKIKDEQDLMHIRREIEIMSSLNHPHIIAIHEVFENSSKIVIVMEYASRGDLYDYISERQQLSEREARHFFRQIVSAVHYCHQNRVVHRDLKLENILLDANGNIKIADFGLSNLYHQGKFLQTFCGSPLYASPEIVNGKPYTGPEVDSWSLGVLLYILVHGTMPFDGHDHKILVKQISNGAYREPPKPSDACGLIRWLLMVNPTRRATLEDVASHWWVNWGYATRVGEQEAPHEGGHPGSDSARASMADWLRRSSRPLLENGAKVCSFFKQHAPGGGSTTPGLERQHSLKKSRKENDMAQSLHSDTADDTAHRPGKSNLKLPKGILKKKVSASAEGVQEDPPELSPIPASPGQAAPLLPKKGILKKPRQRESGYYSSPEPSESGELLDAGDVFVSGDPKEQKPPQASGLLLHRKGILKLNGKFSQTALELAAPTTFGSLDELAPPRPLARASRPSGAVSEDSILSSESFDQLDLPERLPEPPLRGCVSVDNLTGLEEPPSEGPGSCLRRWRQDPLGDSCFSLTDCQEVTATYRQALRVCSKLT

[7] = biological target: T4, NUAK1 (Homo sapiens, UniProt O60285)
T4 sequence (O60285 1-661): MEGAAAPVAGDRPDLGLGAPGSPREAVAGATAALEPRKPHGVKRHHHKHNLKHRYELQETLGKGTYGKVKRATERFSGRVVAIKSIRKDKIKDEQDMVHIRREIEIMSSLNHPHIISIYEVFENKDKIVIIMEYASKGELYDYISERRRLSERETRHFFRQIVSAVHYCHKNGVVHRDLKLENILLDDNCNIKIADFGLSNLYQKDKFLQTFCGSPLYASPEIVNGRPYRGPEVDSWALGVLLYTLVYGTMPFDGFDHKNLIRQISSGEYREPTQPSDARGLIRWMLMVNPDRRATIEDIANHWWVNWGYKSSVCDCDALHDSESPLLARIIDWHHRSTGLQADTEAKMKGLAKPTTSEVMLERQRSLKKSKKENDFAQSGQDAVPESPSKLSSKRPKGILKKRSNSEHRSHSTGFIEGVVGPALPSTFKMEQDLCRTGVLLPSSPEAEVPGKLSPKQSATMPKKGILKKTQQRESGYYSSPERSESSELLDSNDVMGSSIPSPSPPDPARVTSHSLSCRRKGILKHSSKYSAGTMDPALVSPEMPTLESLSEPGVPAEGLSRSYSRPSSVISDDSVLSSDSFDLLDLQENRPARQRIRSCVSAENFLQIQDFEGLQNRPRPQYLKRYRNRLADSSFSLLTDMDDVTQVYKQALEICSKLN

[8] = biological target: JAK1 (Homo sapiens, UniProt P23458)
[9] = biological target: JAK2 (Homo sapiens, UniProt O60674)

Measured: % inhibition at 250 nM

FLT3, sequence (P36888 27-993): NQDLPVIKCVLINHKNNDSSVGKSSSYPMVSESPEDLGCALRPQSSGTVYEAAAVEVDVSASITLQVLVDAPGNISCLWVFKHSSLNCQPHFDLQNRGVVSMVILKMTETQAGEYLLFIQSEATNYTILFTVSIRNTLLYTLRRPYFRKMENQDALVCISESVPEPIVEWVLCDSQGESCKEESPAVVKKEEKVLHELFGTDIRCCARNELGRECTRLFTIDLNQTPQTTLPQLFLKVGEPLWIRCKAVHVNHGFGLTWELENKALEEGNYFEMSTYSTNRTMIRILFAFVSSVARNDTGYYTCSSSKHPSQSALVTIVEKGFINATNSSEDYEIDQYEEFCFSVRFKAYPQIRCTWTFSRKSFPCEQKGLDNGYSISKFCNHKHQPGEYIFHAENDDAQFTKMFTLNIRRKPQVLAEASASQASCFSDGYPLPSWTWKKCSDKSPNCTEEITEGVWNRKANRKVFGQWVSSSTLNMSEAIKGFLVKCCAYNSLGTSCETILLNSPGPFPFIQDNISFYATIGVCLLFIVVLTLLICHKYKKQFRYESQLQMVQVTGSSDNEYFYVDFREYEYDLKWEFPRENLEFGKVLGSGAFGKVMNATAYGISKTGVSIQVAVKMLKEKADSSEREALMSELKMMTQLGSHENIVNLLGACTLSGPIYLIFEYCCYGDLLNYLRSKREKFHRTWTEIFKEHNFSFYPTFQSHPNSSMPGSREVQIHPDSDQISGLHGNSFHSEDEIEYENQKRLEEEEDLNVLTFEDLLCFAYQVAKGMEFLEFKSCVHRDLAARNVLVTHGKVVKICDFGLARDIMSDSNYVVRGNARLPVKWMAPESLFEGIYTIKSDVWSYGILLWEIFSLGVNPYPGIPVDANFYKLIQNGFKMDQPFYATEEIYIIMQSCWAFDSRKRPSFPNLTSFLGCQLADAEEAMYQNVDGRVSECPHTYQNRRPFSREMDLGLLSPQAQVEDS
JAK2, sequence (O60674 whole entry): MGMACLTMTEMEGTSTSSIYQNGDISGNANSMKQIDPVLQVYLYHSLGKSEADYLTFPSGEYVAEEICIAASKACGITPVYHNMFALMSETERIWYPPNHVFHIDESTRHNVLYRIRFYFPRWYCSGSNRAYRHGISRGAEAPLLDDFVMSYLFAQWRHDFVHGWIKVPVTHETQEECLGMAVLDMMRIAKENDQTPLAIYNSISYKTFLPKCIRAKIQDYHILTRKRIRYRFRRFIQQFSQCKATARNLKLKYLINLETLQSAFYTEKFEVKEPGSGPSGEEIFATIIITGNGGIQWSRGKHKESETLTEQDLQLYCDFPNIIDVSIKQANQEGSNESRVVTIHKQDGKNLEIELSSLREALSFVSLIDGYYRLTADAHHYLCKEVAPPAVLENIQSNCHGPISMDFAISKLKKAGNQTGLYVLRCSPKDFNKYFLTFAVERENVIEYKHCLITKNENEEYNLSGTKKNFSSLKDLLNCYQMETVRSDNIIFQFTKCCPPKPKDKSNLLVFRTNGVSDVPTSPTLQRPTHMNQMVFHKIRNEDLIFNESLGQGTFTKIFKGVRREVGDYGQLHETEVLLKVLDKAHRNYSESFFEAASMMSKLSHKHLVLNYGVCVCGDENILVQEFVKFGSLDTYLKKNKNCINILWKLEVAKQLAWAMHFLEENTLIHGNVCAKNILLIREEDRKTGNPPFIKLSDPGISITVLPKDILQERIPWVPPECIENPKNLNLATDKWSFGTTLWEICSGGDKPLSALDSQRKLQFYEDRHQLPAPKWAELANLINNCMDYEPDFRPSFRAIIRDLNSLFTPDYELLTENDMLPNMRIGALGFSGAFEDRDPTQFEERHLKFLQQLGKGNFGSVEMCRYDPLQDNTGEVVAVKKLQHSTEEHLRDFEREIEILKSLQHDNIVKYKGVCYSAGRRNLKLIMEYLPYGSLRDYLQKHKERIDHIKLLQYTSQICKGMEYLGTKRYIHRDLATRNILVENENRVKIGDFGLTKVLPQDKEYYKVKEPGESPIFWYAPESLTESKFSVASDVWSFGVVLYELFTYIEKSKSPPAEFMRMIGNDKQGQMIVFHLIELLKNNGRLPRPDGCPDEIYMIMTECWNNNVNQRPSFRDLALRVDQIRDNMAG
LRRK2, sequence (Q5S007 whole entry): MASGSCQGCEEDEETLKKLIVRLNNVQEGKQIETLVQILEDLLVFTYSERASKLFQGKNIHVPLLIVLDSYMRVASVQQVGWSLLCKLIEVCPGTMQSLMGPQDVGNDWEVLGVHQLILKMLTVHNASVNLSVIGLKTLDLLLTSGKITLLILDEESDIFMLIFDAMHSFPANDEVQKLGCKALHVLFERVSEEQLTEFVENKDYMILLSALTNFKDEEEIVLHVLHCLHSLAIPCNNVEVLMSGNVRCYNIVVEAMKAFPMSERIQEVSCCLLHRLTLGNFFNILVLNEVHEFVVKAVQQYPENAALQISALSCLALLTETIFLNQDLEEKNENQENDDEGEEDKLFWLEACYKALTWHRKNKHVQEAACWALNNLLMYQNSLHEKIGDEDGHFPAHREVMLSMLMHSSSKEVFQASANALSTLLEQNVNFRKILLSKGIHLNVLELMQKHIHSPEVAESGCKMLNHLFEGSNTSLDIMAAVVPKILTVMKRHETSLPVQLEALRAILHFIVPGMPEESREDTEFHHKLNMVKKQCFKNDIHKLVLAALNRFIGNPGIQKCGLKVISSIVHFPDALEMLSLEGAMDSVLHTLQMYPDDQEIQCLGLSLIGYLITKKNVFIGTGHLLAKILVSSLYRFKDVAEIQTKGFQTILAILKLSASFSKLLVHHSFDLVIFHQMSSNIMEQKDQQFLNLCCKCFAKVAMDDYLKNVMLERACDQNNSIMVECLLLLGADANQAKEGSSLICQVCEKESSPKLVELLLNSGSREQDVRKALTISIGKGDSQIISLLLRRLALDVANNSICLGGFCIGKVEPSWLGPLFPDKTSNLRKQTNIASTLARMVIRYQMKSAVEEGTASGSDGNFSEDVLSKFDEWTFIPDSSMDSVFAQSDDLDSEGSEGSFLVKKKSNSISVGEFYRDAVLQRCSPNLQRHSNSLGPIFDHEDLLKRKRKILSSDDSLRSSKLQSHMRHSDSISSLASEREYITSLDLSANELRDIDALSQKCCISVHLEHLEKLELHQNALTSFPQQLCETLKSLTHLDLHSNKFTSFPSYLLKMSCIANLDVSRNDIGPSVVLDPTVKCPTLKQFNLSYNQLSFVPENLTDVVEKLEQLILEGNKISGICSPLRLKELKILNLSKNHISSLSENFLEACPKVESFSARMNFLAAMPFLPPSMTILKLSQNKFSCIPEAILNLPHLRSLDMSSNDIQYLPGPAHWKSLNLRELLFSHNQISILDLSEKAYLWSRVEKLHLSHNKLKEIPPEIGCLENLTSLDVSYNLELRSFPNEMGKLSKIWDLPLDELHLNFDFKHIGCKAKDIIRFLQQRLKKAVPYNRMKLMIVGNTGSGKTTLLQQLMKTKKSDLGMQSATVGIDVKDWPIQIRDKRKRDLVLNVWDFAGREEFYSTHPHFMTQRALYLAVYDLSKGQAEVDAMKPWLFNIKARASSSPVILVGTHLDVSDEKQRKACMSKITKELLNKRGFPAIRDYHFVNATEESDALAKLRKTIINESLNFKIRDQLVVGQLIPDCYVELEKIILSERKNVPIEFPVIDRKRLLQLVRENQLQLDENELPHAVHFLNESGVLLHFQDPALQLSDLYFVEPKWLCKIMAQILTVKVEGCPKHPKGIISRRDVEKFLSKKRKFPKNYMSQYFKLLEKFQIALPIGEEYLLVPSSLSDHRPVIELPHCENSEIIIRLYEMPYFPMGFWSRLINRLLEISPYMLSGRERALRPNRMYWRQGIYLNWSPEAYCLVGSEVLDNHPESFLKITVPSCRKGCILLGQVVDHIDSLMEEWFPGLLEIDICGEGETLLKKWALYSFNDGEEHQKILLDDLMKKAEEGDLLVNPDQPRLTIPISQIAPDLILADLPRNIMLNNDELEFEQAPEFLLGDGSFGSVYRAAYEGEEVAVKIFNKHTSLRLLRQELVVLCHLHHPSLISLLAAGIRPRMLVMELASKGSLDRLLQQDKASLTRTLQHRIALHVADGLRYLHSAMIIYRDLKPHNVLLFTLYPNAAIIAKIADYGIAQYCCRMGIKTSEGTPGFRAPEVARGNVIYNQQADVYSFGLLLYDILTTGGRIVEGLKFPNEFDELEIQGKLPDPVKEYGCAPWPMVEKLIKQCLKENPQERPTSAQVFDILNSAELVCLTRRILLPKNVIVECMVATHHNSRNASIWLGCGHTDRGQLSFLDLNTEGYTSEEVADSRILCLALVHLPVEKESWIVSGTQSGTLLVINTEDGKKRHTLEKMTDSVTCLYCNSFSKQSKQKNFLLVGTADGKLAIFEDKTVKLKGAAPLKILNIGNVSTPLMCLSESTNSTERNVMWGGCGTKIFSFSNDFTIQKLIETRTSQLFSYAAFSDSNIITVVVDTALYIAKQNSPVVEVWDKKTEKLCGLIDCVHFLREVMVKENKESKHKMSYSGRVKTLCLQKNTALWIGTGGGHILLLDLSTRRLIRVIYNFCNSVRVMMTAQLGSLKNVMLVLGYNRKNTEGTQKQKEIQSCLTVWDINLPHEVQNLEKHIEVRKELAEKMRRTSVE

CN1CCN(c2ccc(Nc3ncc(Cl)c(NC[C@H]4CCCO4)n3)cc2)CC1 [(R)-9bMS]
> 90: all assays above
